Measured values from US6632921B1, “Seryl-lysyl-based peptide and peptidomimetic inhibitors of N-myristoyl transferase as anti-infective agents” (G. D Searle & Co, priority 1995, dated 2003).

Test system: C. albicans Arf N-myristoylation
Assay: Gel shift assay for degree of N-myristoylation of Arf in C. albicans cultures
Type: cell-based, Candida albicans
Settings: 200 μM, 24° C., strain MONCA105; for reduction in Arf N-myristoylation: 2 h
Text: N-myristoylation of C. albicans ADP ribosylation factor (Arf), produces a change in its electrophoretic mobility during SDS-polyacrylamide gel electrophoresis. The acylated species migrates more rapidly than the nonmyristoylated species [J. K. Lodge et al, J. Biol. Chem., 269, 2996-3009 (1994)].
Based on these findings, acylation of C. albicans Arf, measured using this protein gel shift assay, was used to define the effects of peptide analog inhibitors of C. albicans NMT on the efficiency of protein N-myristoylation in cultures of this fungal pathogen.
The assay was performed as follows. A single colony of Candida albicans strain MONCA105 NMT, [R. A Weinberg et al, Mol. Micro., in press, (1995)] was innoculated into YPD medium (YPD=1% yeast extract, 2% peptone, 2% dextrose). Cultures were shaken at 24° C. for 12-16 h. Cells were recovered by centrifugation, washed 3 times with sterile PBS, pH 7.4 and resuspended in YPD at an OD600 of 1.0-1.5. Fifty microliters of a 20 mM stock solution of peptide analog (prepared in sterile deionized H2O) were added to a sterile polypropylene tube containing 4.5 mL of fresh YPD medium. Five hundred microliters of the C. albicans culture was then added to the tubes. Controls consisted of no added peptide analog (i.e. water alone).The tubes were incubated at 24° C. with vigorous shaking for 2 hr or 4 hr. For each experiment, duplicate tubes were assayed for each condition and at each time point. Cells were recovered by centrifugation, resuspended in 200 μL of Lysis Buffer (0.125M Tris-HCl, pH 6.8/4% SDS), and transferred to microfuge tubes containing 200 μL of glass beads (bead diameter=425-600 μm, Sigma).The slurry was vortexed 3 times for 1 min each. Between each cycle of vortexing, the tubes were placed on ice for 1 min. The mixture was then placed in a boiling water bath for 10 min, vortexed once again for 1 min and subsequently spun at 10,000×g for 2 min. The cleared supernatant fraction was removed, spun again at 10,000×g for 5 min and the total protein concentration determined. […]

Row | Compound | reduction in Arf N-myristoylation | reduction of Arf acylation (4 h)
1 | Cc1nccn1CCCCc1ccc(CC(=O)N[C@H](CO)C(=O)N[C@H](CCCCN)C(=O)N[C@H](CC2CCCCC2)C(=O)O)cc1 [Comparator Compound A, D-Alanine, 3-cyclohexyl-N-[N^2-[N-[[4-[4-(2-methyl-1H-imidazol-1-yl)butyl]phenyl]acetyl]-D-seryl]-D-lysyl]-, bis-trifluoroacetate] | no detectable reduction | no detectable reduction
2 | Cc1nccn1CCCCc1ccc(CC(=O)N[C@@H](CO)C(=O)N[C@@H](CCCCN)C(=O)N[C@@H](CC2CCCCC2)C(=O)O)cc1 [Example 2, L-Alanine, 3-cyclohexyl-N-[N^2-[N-[[4-[4-(2-Methyl-1H-imidazol-1-yl)butyl]phenyl]acetyl]-L-seryl]-L-lysyl]-, bis-trifluoroacetate] | ~10% | 
